{"source": "patent US11149018B2", "about": "“Substituted N-arylethyl-2-aminoquinoline-4-carboxamides and use thereof” (Bayer Aktiengesellschaft, priority 2017, dated 2021)", "key": {"[1]": {"system": "C57Bl6J mice with unilateral ureteral obstruction", "assay": "Unilateral ureteral obstruction (UUO) in mice (renal fibrosis)", "assay_type": "in vivo, mouse", "details": "10 days after UUO, mean ± SD, n=10; for SR/FG positive area [%]: SiriusRed/FastGreen collagen staining of kidney; for αSMA positive area [%]: immunohistochemistry of kidney; for Gene expression CTGF / Gene expression Col1α1 / Gene expression Col3α1 / Gene expression Col4α1 / Gene expression IL1-β / Gene expression IL-6 / Gene expression KC / Gene expression MCP-1 / Gene expression TGF-β / Gene expression αSMA: kidney, % of placebo group (=100%)", "from_the_text": "B-22. Animal Model of Unilateral Ureteral Obstruction (UUO) in Mice (Renal Fibrosis) Unilateral ureteral obstruction in mice and rats is a widely used animal model for interstitial renal fibrosis (Chevalier et al., Kidney Int. 2009, 75, 1145-1152). Permanent occlusion of the ureter leads, as a result of the sustained accumulation of the urine, to increased inflammatory cell infiltration into the interstitium, to tubular cell death and to irreversible loss of the renal parenchyma. After 5 to 7 days, owing to the elevated deposition of extracellular matrix proteins, interstitial fibrosis arises. Adult male […] mice (Charles River Laboratories, Sulzfeld, Germany) having a weight of 20-22 g were anaesthetized with isoflurane, then, after opening up the abdominal cavity, a ureter was ligated and severed beneath the ligature. In the sham-operated control mice (SHAM), the abdominal cavity was merely opened up, but the ureter was not ligated. […] 10 days after the UUO, the animals were anaesthetized and sacrificed by exsanguination. Thereafter, the kidneys were removed and renal fibrosis was assessed on the basis of the expression of pro-inflammatory and pro-fibrotic markers, and a histological assessment of the renal tissue."}, "[2]": {"system": "C57Bl6J mice with DQ12 silica-induced pulmonary fibrosis", "assay": "Silica-induced pulmonary fibrosis in mice, therapeutic chronic 30-day study", "assay_type": "in vivo, mouse", "details": "for Hydroxyproline [ng/lung]: day 10-30, mean ± SEM", "method": "B-23. Silica-Induced Pulmonary Fibrosis in Mice: Therapeutic Chronic 30-Day Study with FP Antagonists\nAdult female C57Bl6J mice (Charles River Laboratories, Sulzfeld, Germany) having a weight of 18-20 g were anaesthetized in a chamber with isoflurane (3% v/v) and treated intratracheally with 2.5 mg of crystalline DQ12 silica dissolved in 70 μL of sterile phosphate-buffered saline. Untreated control mice received the same volume of phosphate-buffered saline. […] 30 days after the installation of silica, the animals were anaesthetized with an intraperitoneal injection of ketamine/medetomidine (50 mg/kg and 0.33 mg/kg) combined with a subcutaneous injection of Temgesic (0.06 mg/kg) and sacrifice by exsanguination. Thereafter, the trachea was cannulated, and the animals' lungs were lavaged three times with 0.5 ml of ice-cold phosphate-buffered saline. Thereafter, the lungs were removed, weighed and shock-frozen in dry ice. […] The data are mean values±SEM of 8-12 animals per group. The statistical analysis was conducted with the unpaired Student's t test. P values<0.05 were considered to be significant."}, "[3]": {"system": "C57BL/6J mice with CCl4-induced hepatic fibrosis", "assay": "Carbon tetrachloride (CCl4)-induced hepatic fibrosis in mice", "assay_type": "in vivo, mouse", "method": "B-21. Carbon Tetrachloride (CCl4)-Induced Hepatic Fibrosis in Mice\nSixty C57BL/6J mice (Charles River, male, 8 weeks old) were randomized and divided equally into 4 groups (15 mice per group). Group 1 served as the untreated healthy control group, whereas groups 2-4 served as mice suffering from hepatic fibrosis. Hepatic fibrosis was induced by intraperitoneal injection of 50 μl CCl4/olive oil suspension (CCl4+olive oil, 1+9 v/v) three times per week (Monday, Wednesday and Friday) over the entire study period. […] The CCl4-treated mice of group 4 served as group treated with a compound of the formula (I). The oral treatment of group 3 with the vehicle solution and of group 4 with a compound of the formula (I) started on day 1 and was continued twice daily (in the morning and evening) over the complete study period of two weeks. At the end of the study, all animals were sacrificed under anaesthetic, and the livers were removed fixed in 4% buffered formaldehyde solution for the subsequent histological processing and analysis. For this purpose, liver samples for all animals were embedded in paraffin and 3 μm-thick paraffin sections were produced. […] The sections were scanned with 20× enlargement and a light intensity of 4.8 V. The images thus produced were then converted to JPG format, and the red-stained area was quantified by means of ImageJ software (National Institute of Health, USA). […]"}, "FP receptor [4]": {"biological_target": "T1, FP receptor (Homo sapiens (Human), UniProt P43088)", "T1 sequence (P43088 whole entry)": "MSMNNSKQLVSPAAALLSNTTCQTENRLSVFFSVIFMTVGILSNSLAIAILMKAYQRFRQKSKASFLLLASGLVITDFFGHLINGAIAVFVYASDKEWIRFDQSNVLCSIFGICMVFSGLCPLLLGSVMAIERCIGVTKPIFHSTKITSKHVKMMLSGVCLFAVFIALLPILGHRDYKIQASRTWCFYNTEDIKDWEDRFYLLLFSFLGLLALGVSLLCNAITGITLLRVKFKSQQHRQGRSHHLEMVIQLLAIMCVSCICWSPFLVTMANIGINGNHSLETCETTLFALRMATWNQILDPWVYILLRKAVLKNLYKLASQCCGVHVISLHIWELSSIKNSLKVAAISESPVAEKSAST", "details": "least selective of the prostanoid receptors; cited from earlier work"}, "[5]": {"system": "occlusion of the cerebral artery", "details": "treatment with the FP antagonist after occlusion of the cerebral artery; cited from earlier work"}, "FP receptor [6]": {"biological_target": "T1, FP receptor", "assay": "In vitro test of inhibition of human FP receptor activity (PGF2α-induced calcium flux in FP-expressing CHEM1 cells)", "assay_type": "cell-based", "details": "PGF2α 2 nM, some mean values of multiple determinations", "method_in_brief": "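FP antagonism in FP-expressing CHEM1 cells loaded with Fluo-8. Compound preincubated 10 min at 37° C, then receptor stimulated with 2 nM (final) PGF2α in calcium-free Tyrode with 2 mM CaCl2.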"}}, "data": [{"smiles": "Cc1c(N2CCCC2)nc2ccc(Br)cc2c1C(=O)NCC(CCC(=O)O)c1ccccc1Cl.Cl", "note": "(single isomer, unassigned; (+)) [Example 284, (+)-5-({[6-Bromo-3-methyl-2-(pyrrolidin-1-yl)quinolin-4-yl]carbonyl}amino)-4-(2-chlorophenyl)pentanoic acid hydrochloride]", "values": [{"measurement": "SR/FG positive area [%]", "setting": "[1]; 30 mg/kg", "value": "38.74 ± 9.12", "unit": "%"}, {"measurement": "αSMA positive area [%]", "setting": "[1]; 30 mg/kg", "value": "25.19 ± 3.23", "unit": "%"}, {"measurement": "Gene expression CTGF", "setting": "[1]; 30 mg/kg", "value": "105.67 ± 52.33", "unit": "%"}, {"measurement": "Gene expression Col1α1", "setting": "[1]; 30 mg/kg", "value": "76.70 ± 36.22", "unit": "%"}, {"measurement": "Gene expression Col3α1", "setting": "[1]; 30 mg/kg", "value": "103.74 ± 37.60", "unit": "%"}, {"measurement": "Gene expression Col4α1", "setting": "[1]; 30 mg/kg", "value": "71.15 ± 20.20", "unit": "%"}, {"measurement": "Gene expression IL1-β", "setting": "[1]; 30 mg/kg", "value": "81.91 ± 31.93", "unit": "%"}, {"measurement": "Gene expression IL-6", "setting": "[1]; 30 mg/kg", "value": "207.04 ± 389.13", "unit": "%"}, {"measurement": "Gene expression KC", "setting": "[1]; 30 mg/kg", "value": "65.02 ± 15.98", "unit": "%"}, {"measurement": "Gene expression MCP-1", "setting": "[1]; 30 mg/kg", "value": "93.98 ± 26.32", "unit": "%"}, {"measurement": "Gene expression TGF-β", "setting": "[1]; 30 mg/kg", "value": "67.57 ± 32.67", "unit": "%"}, {"measurement": "Gene expression αSMA", "setting": "[1]; 30 mg/kg", "value": "72.97 ± 39.94", "unit": "%"}, {"measurement": "SR/FG positive area [%]", "setting": "[1]; 60 mg/kg", "value": "34.66 ± 7.59", "unit": "%"}, {"measurement": "αSMA positive area [%]", "setting": "[1]; 60 mg/kg", "value": "22.28 ± 4.04", "unit": "%"}, {"measurement": "Gene expression CTGF", "setting": "[1]; 60 mg/kg", "value": "102.07 ± 26.99", "unit": "%"}, {"measurement": "Gene expression Col1α1", "setting": "[1]; 60 mg/kg", "value": "38.90 ± 13.11", "unit": "%"}, {"measurement": "Gene expression Col3α1", "setting": "[1]; 60 mg/kg", "value": "126.15 ± 46.51", "unit": "%"}, {"measurement": "Gene expression Col4α1", "setting": "[1]; 60 mg/kg", "value": "45.97 ± 8.44", "unit": "%"}, {"measurement": "Gene expression IL1-β", "setting": "[1]; 60 mg/kg", "value": "112.05 ± 71.38", "unit": "%"}, {"measurement": "Gene expression IL-6", "setting": "[1]; 60 mg/kg", "value": "494.83 ± 850.76", "unit": "%"}, {"measurement": "Gene expression KC", "setting": "[1]; 60 mg/kg", "value": "50.69 ± 22.02", "unit": "%"}, {"measurement": "Gene expression MCP-1", "setting": "[1]; 60 mg/kg", "value": "117.41 ± 38.15", "unit": "%"}, {"measurement": "Gene expression TGF-β", "setting": "[1]; 60 mg/kg", "value": "31.79 ± 9.06", "unit": "%"}, {"measurement": "Gene expression αSMA", "setting": "[1]; 60 mg/kg", "value": "51.72 ± 21.33", "unit": "%"}, {"measurement": "Hydroxyproline [ng/lung]", "setting": "[2]; Silica + 10 mg/kg po bid", "value": "2341 ± 54.99 (n = 12) ng/lung"}, {"measurement": "Hydroxyproline [ng/lung]", "setting": "[2]; Silica + 30 mg/kg po bid", "value": "2185 ± 86.79 (n = 12) ng/lung"}, {"measurement": "Progression of fibrosis (result in words)", "setting": "[3]; 2-week study in mice with hepatic fibrosis, p<0.01, two-way ANOVA with Dunnett post-hoc test", "value": "significant reduction in the progression of fibrosis"}, {"measurement": "Sirius red [% liver area]", "setting": "[3]; CCl4 + 100 mg/kg, oral twice daily, 2 weeks, mean ± SD", "value": "3.51 ± 0.65", "unit": "% liver area"}]}, {"smiles": "CCCCC[C@H](O)/C=C/[C@H]1[C@H](O)CC(=O)[C@@H]1C/C=C\\CCCC(=O)O", "note": "[PGE2, prostaglandin E2]", "values": [{"measurement": "binding affinity to the FP receptor", "setting": "FP receptor [4]", "value": "nanomolar affinities"}]}, {"smiles": "Cc1c(N2CCCC2)nc2ccc(Br)cc2c1C(=O)NCC(CCC(=O)O)c1ccccc1Cl", "note": "(single isomer, unassigned; (+)) [Example 35, (+)-5-({[6-bromo-3-methyl-2-(pyrrolidin-1-yl)quinolin-4-yl]carbonyl}amino)-4-(2-chlorophenyl)pentanoic acid]", "values": [{"measurement": "Hydroxyproline formation and fibrosis (result in words)", "setting": "[2]; 10 and 30 mg/kg po bid, versus silica-treated control", "value": "significant reduction in the hydroxyproline formation and fibrosis"}]}, {"smiles": "O=C(O)CCC/C=C\\C[C@@H]1[C@@H](/C=C/[C@H](O)C2Cc3ccccc3C2)[C@@H](F)C[C@@H]1O", "note": "[AL-8810]", "values": [{"measurement": "neuroprotective effect", "setting": "[5]", "value": "significant neuroprotective effects"}]}, {"smiles": "CCCCC[C@H](O)/C=C/[C@H]1C(=O)C[C@H](O)[C@@H]1C/C=C\\CCCC(=O)O", "note": "[PGD2, prostaglandin D2]", "values": [{"measurement": "binding affinity to the FP receptor", "setting": "FP receptor [4]", "value": "nanomolar affinities"}]}, {"smiles": "Cc1c(N2CCCCC2C)nc2ccc(Br)cc2c1C(=O)NCC(CCC(=O)O)c1ccccc1Cl", "note": "(stereo not drawn) [Example 108, 5-[({6-Bromo-3-methyl-2-[2-methylpiperidin-1-yl]quinolin-4-yl}carbonyl)amino]-4-(2-chlorophenyl)pentanoic acid]", "values": [{"measurement": "IC50", "setting": "FP receptor [6]", "value": 360, "unit": "nM"}]}, {"smiles": "Cc1c(N2CCCC(F)C2)nc2ccc(Br)cc2c1C(=O)NCC(CCC(=O)O)c1ccccc1OC(F)(F)F", "note": "(single isomer, unassigned; (+)) [Example 203, (+)-5-[({6-Bromo-2-[3-fluoropiperidin-1-yl]-3-methylquinolin-4-yl}carbonyl)amino]-4-[2-(trifluoromethoxy)phenyl]pentanoic acid]", "values": [{"measurement": "IC50", "setting": "FP receptor [6]", "value": 11, "unit": "nM"}]}, {"smiles": "Cc1c(N2CCCC(C)C2)nc2ccc(Br)cc2c1C(=O)NCC(CCC(=O)O)c1ccccc1Cl", "note": "(single isomer, unassigned; (+)) [Example 48, (+)-5-[({6-Bromo-3-methyl-2-[3-methylpiperidin-1-yl]quinolin-4-yl}carbonyl)amino]-4-(2-chlorophenyl)pentanoic acid]", "values": [{"measurement": "IC50", "setting": "FP receptor [6]", "value": 1.2, "unit": "nM"}]}, {"smiles": "Cc1c(N2CCCCC2)nc2ccc(Br)cc2c1C(=O)NCC(CCC(=O)O)c1c(Cl)cccc1Cl", "note": "(racemic) [Example 241, (+/−)-5-({[6-Bromo-3-methyl-2-(piperidin-1-yl)quinolin-4-yl]carbonyl}amino)-4-(2,6-dichlorophenyl)pentanoic acid]", "values": [{"measurement": "IC50", "setting": "FP receptor [6]", "value": 12, "unit": "nM"}]}, {"smiles": "Cc1c(N2CC[C@@H](F)C2)nc2ccc(Br)cc2c1C(=O)NCC(CCC(=O)O)c1ccccc1Cl", "note": "(single isomer, unassigned; (+)) [Example 68]", "values": [{"measurement": "IC50", "setting": "FP receptor [6]", "value": 14, "unit": "nM"}]}, {"smiles": "COCCNc1nc2ccc(Br)cc2c(C(=O)NCC(CCC(=O)O)c2ccccc2Cl)c1C", "note": "(racemic) [Example 104, (+/−)-5-[({6-Bromo-2-[(2-methoxyethyl)amino]-3-methylquinolin-4-yl}carbonyl)amino]-4-(2-chlorophenyl)pentanoic acid]", "values": [{"measurement": "IC50", "setting": "FP receptor [6]", "value": 410, "unit": "nM"}]}, {"smiles": "CCC1CCCN(c2nc3ccc(Br)cc3c(C(=O)NCC(CCC(=O)O)c3c(F)cccc3F)c2C)C1", "note": "(stereo not drawn) [Example 254, 5-[({6-Bromo-2-(3-ethylpiperidin-1-yl)-3-methylquinolin-4-yl}carbonyl)amino]-4-(2,6-difluorophenyl)pentanoic acid]", "values": [{"measurement": "IC50", "setting": "FP receptor [6]", "value": 2.8, "unit": "nM"}]}]}
